Results: ChEMBL document CHEMBL3297656, “New coumarin derivatives: design, synthesis and use as inhibitors of hMAO” (Bioorg Med Chem, 2014)

Experiments:
[1] = target: T1, Amine oxidase [flavin-containing] B (Homo sapiens, UniProt P27338); assay: Inhibition of human recombinant MAO-B assessed as H2O2 production using p-tyramine substrate by fluorimetric method
T1 sequence (P27338 whole entry): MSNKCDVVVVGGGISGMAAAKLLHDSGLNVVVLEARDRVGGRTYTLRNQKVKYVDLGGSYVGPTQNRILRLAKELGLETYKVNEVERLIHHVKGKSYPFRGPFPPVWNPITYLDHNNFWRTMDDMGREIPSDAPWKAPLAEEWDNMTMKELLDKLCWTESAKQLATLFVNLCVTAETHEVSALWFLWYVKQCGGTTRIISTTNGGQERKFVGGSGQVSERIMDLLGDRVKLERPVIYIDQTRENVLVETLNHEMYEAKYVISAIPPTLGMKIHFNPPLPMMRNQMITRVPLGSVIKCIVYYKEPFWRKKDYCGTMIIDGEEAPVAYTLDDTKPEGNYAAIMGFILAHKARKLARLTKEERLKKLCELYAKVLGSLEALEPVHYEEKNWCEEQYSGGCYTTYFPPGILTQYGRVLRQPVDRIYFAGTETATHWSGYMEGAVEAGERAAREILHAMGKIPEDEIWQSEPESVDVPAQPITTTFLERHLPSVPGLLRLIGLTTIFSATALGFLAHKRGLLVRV

Homo sapiens = species on record: Homo sapiens; assay: Selectivity index, ratio of IC50 for human recombinant MAO-A to IC50 for human recombinant MAO-B
[2] = target: T2, Amine oxidase [flavin-containing] A (Homo sapiens, UniProt P21397); assay: Inhibition of human recombinant MAO-A assessed as H2O2 production using p-tyramine substrate by fluorimetric method
T2 sequence (P21397 whole entry): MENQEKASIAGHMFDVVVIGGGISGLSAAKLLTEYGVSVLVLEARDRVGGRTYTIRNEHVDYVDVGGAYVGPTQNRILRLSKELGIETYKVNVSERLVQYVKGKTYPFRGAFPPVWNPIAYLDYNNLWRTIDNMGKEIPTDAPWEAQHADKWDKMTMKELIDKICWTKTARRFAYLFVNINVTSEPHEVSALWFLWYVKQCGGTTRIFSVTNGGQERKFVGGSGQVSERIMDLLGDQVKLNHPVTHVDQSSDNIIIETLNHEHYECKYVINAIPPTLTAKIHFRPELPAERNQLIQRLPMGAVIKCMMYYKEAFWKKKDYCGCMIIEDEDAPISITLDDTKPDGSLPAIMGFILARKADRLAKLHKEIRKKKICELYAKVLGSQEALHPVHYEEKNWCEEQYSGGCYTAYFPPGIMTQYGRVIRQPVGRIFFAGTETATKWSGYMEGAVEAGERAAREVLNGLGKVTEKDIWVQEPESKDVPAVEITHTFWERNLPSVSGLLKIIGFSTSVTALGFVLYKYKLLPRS

[3] = target: T2, Amine oxidase [flavin-containing] A; assay: Inhibition of human recombinant MAO-A assessed as H2O2 production using p-tyramine substrate at 60 uM by fluorimetric method
[4] = target: T1, Amine oxidase [flavin-containing] B; assay: Inhibition of human recombinant MAO-B assessed as H2O2 production using p-tyramine substrate at 60 uM by fluorimetric method

SMILES	IC50 [1]	Ratio IC50 (Homo sapiens)	IC50 [2]	inhibition (INH) [3]	inhibition (INH) [4]
CCC(C)NC(=O)c1cc2cc(Br)cc(Br)c2oc1=O (stereo not drawn)	45.4 µM	0.9	42.3 µM	–	–
O=C(SCc1ccco1)c1cc2cc(Br)c(Br)cc2oc1=O	5.68 µM	10.6	–	Not Active	–
O=C(SCc1ccco1)c1cc2cc([N+](=O)[O-])ccc2oc1=O	13.1 µM	2.9	48.3 µM	–	–
O=C(Sc1ccc(Br)cc1)c1cc2cc([N+](=O)[O-])ccc2oc1=O	20.7 µM	2.6	–	Not Active	–
CCC(C)NC(=O)c1cc2cc([N+](=O)[O-])ccc2oc1=O (stereo not drawn)	17.4 µM	3.4	–	Not Active	–
CCCCSC(=O)c1cc2ccccc2oc1=O	16 µM	3.8	–	Not Active	–
CC(C)(C)NC(=O)c1cc2cc([N+](=O)[O-])ccc2oc1=O	–	–	–	Not Active	Not Active
CCCCCCN(CCCCCC)C(=O)c1cc2cc(Br)cc(Br)c2oc1=O	7.41 µM	1.4	10.1 µM	–	–
CC(C)(C)NC(=O)c1cc2ccccc2oc1=O	7.9 µM	5.1	40.4 µM	–	–
CCCCSC(=O)c1cc2cc([N+](=O)[O-])ccc2oc1=O	–	–	–	Not Active	Not Active
CC(C)NC(=O)c1cc2cc(Br)cc(Br)c2oc1=O	10.3 µM	2.2	22.7 µM	–	–
O=C(Sc1ncccn1)c1cc2ccccc2oc1=O	7.68 µM	7.8	–	Not Active	–
CCCCSC(=O)c1cc2cc(Br)c(Br)cc2oc1=O	–	–	–	Not Active	Not Active
CCCCCCN(CCCCCC)C(=O)c1cc2cc([N+](=O)[O-])ccc2oc1=O	–	–	–	Not Active	Not Active
CC(C)NC(=O)c1cc2cc([N+](=O)[O-])ccc2oc1=O	–	–	–	Not Active	Not Active
CC(C)NC(=O)c1cc2ccccc2oc1=O	–	–	35.5 µM	–	–
O=C(Sc1ccc(Br)cc1)c1cc2cc(Br)c(Br)cc2oc1=O	25.2 µM	2.4	–	Not Active	–
O=C(Sc1ccc(Br)cc1)c1cc2cc(C(F)(F)F)ccc2oc1=O	15.2 µM	3.9	–	Not Active	–
O=C(SCc1ccco1)c1cc2ccccc2oc1=O	0.21 µM	189	39.7 µM	–	–
O=C(Sc1ccc(Br)cc1)c1cc2ccccc2oc1=O	6.5 µM	3.5	22.7 µM	–	–
